Measurements from patent US20250051300A1, “GRAM-NEGATIVE SPECIFIC ANTIBIOTICS SPARING EFFECT ON GUT MICROBIOME” (THE BOARD OF TRUSTEES OF THE UNIVERSITY OF ILLINOIS, priority 2021, published 2025).
In brackets after ≈: the same amount, converted by molar mass. Read-outs that look alike come from different tables or passages of the source.

What was measured:
[1] = Mouse maximum tolerated dose / tolerability; assay type: in vivo
Protocol: Mouse maximum tolerated dose (MTD) of compound 2 and lolamycin. […] In these studies, 10- to 12-week-old female C57BL/6 mice purchased from Charles River Laboratories were used. The maximum tolerated dose (MTD) of a single compound via IP injection was determined first. Compound 2 and lolamycin were formulated in 50% DMSO, 50% PEG400. Compound 2 and lolamycin were given by intraperitoneal (IP) injection. All the mice were monitored for signs of toxicity for 2 weeks. For multiple doses, the compound was given by daily IP injection for 5 consecutive days and the mice were monitored for signs of toxicity for 1 month. The MTD was the highest dosage with acceptable toxicity (for example, <20% weight loss).
Next, the MTD of lolamycin via oral gavage was determined. Lolamycin was formulated in 20% DMSO, 30% Water, and 50% PEG400. Lolamycin was given via oral gavage. All the mice were monitored for signs of toxicity for 2 weeks. For multiple doses, compound was given twice daily orally for 3 consecutive days and the mice were monitored for signs of toxicity. The MTD was the highest dosage with acceptable toxicity (for example, <20% weight loss). […] The MTD of lolamycin was used to inform the dosing schedule used in subsequent efficacy studies.

Escherichia coli = assay: Resistance frequency, large inoculum method; assay type: cell-based
Protocol: Selection of resistant mutants. Resistant mutants were selected using the large inoculum method. Briefly, E. coli BW25113, K. pneumoniae ATCC 27736, or E. cloacae ATCC 29893 (˜1.0×10^7 c.f.u.) was plated on 100-mm plates of Luria Bertani agar containing 8, 16, 32, or 64 μg/mL, lolamycin. For E. coli ΔtolC (JW5503), ˜1.0×10^7 c.f.u. was plated on 100-mm plates of Luria Bertani agar containing 0.063, 0.13, 0.25, 0.5 μg/mL lolamycin. Colonies were visible after incubating at 37° C. for 48 h. Resistant colonies were confirmed by growing colonies in selective media with the same concentration of lolamycin.

[2] = system: clinical isolates of E. coli, K. pneumoniae, and E. cloacae; assay: Susceptibility of panel of multidrug-resistant clinical isolates; conditions: MDR clinical isolates of E. coli
Klebsiella pneumoniae = assay: MIC, micro-dilution broth method (CLSI); assay type: cell-based; conditions: Klebsiella pneumoniae, read-out: MIC
Enterobacter cloacae = assay: MIC, micro-dilution broth method (CLSI); assay type: cell-based; conditions: Enterobacter cloacae, read-out: MIC

Cc1cc(-c2c[nH]nc2-c2cccc(OCc3cccc(C#N)c3)c2)cc(C)n1 [Compound 12, 3-((3-(4-(2,6-dimethylpyridin-4-yl)-1H-pyrazol-3-yl)phenoxy)methyl)benzonitrile]
tolerability ([1]; C57BL/6 mice, daily dosing of 200 mg/kg for 5 consecutive days, IP): well tolerated | tolerability ([1]; C57BL/6 mice, single dose of 200 mg/kg, IP): well tolerated | tolerability ([1]; mice, 100 mg/kg twice a day for three days, IP): well-tolerated | tolerability ([1]; mice, 200 mg/kg twice a day for three days, oral gavage, listed as Lolamycin, 200 mg/kg): well tolerated | tolerability ([1]; mice, 200 mg/kg twice a day for three days, oral gavage, listed as lolamycin, 200 mg/kg): well-tolerated | resistance frequency (Escherichia coli; E. coli ΔtolC JW5503, 32×MIC): 1.8×10^−8 | resistance frequency (Escherichia coli; wild-type E. coli BW25113, 8×MIC): 3.4×10^−7 | concentration that kills 50% of the strains [2]: ~2 µg/mL | concentration that kills 90% of the strains [2]: ~8 µg/mL | MIC (Klebsiella pneumoniae; ATCC27736, K. pneumoniae ATCC 27736): 1 µg/mL (≈ 2.63 µM) | MIC (Klebsiella pneumoniae; ATCCBAA1705, K. pneumoniae ATCC BAA-1705): 4 µg/mL (≈ 10.5 µM) | MIC (Klebsiella pneumoniae; ATCCBAA2146, K. pneumoniae ATCC BAA-2146): 8 µg/mL (≈ 21 µM) | MIC (Klebsiella pneumoniae; ATCCBAA2342, K. pneumoniae ATCC BAA-2342): 4 µg/mL (≈ 10.5 µM) | MIC (Klebsiella pneumoniae; ATCCBAA2470, K. pneumoniae ATCC BAA-2470): 1 µg/mL (≈ 2.63 µM) | MIC (Klebsiella pneumoniae; ATCCBAA2472, K. pneumoniae ATCC BAA-2472): 4 µg/mL (≈ 10.5 µM) | MIC (Klebsiella pneumoniae; ATCCBAA2473, K. pneumoniae ATCC BAA-2473): 4 µg/mL (≈ 10.5 µM) | MIC (Klebsiella pneumoniae; K. pneumoniae AR0034): 0.5 µg/mL (≈ 1.31 µM) | MIC (Klebsiella pneumoniae; K. pneumoniae AR0039): 0.5 µg/mL (≈ 1.31 µM) | MIC (Klebsiella pneumoniae; K. pneumoniae AR0041): 0.5 µg/mL (≈ 1.31 µM) | MIC (Klebsiella pneumoniae; K. pneumoniae AR0042): 4 µg/mL (≈ 10.5 µM) | MIC (Klebsiella pneumoniae; K. pneumoniae AR0043): 0.5 µg/mL (≈ 1.31 µM) | MIC (Klebsiella pneumoniae; K. pneumoniae AR0044): 0.5 µg/mL (≈ 1.31 µM) | MIC (Klebsiella pneumoniae; K. pneumoniae AR0046): 2 µg/mL (≈ 5.26 µM) | MIC (Klebsiella pneumoniae; K. pneumoniae AR0047): 4 µg/mL (≈ 10.5 µM) | MIC (Klebsiella pneumoniae; K. pneumoniae AR0049): 8 µg/mL (≈ 21 µM) | MIC (Klebsiella pneumoniae; K. pneumoniae AR0066): 4 µg/mL (≈ 10.5 µM) | MIC (Klebsiella pneumoniae; K. pneumoniae AR0068): 4 µg/mL (≈ 10.5 µM) | MIC (Klebsiella pneumoniae; K. pneumoniae AR0075): 1 µg/mL (≈ 2.63 µM) | MIC (Klebsiella pneumoniae; K. pneumoniae AR0076): 0.5 µg/mL (≈ 1.31 µM) | MIC (Klebsiella pneumoniae; K. pneumoniae AR0079): 2 µg/mL (≈ 5.26 µM) | MIC (Klebsiella pneumoniae; K. pneumoniae AR0080): 0.5 µg/mL (≈ 1.31 µM) | MIC (Klebsiella pneumoniae; K. pneumoniae AR0087): 2 µg/mL (≈ 5.26 µM) | MIC (Klebsiella pneumoniae; K. pneumoniae AR0098): 4 µg/mL (≈ 10.5 µM) | MIC (Klebsiella pneumoniae; K. pneumoniae AR0106): 2 µg/mL (≈ 5.26 µM) | MIC (Klebsiella pneumoniae; K. pneumoniae AR0107): 0.25 µg/mL (≈ 0.657 µM) | MIC (Klebsiella pneumoniae; K. pneumoniae AR0109): 8 µg/mL (≈ 21 µM) | MIC (Klebsiella pneumoniae; K. pneumoniae AR0112): 4 µg/mL (≈ 10.5 µM) | MIC (Klebsiella pneumoniae; K. pneumoniae AR0113): 2 µg/mL (≈ 5.26 µM) | MIC (Klebsiella pneumoniae; K. pneumoniae AR0115): 8 µg/mL (≈ 21 µM) | MIC (Klebsiella pneumoniae; K. pneumoniae AR0117): 4 µg/mL (≈ 10.5 µM) | MIC (Klebsiella pneumoniae; K. pneumoniae AR0120): 2 µg/mL (≈ 5.26 µM) | MIC (Klebsiella pneumoniae; K. pneumoniae AR0125): 4 µg/mL (≈ 10.5 µM) | MIC (Klebsiella pneumoniae; K. pneumoniae AR0126): 0.5 µg/mL (≈ 1.31 µM) | MIC (Klebsiella pneumoniae; K. pneumoniae AR0129): 4 µg/mL (≈ 10.5 µM) | MIC (Klebsiella pneumoniae; K. pneumoniae AR0135): 2 µg/mL (≈ 5.26 µM) | MIC (Klebsiella pneumoniae; K. pneumoniae AR0138): 1 µg/mL (≈ 2.63 µM) | MIC (Klebsiella pneumoniae; K. pneumoniae AR0139): 2 µg/mL (≈ 5.26 µM) | MIC (Klebsiella pneumoniae; K. pneumoniae AR0140): 2 µg/mL (≈ 5.26 µM) | MIC (Klebsiella pneumoniae; K. pneumoniae AR0141): 0.5 µg/mL (≈ 1.31 µM) | MIC (Klebsiella pneumoniae; K. pneumoniae AR0142): 0.5 µg/mL (≈ 1.31 µM) | MIC (Klebsiella pneumoniae; K. pneumoniae AR0143): 4 µg/mL (≈ 10.5 µM) | MIC (Klebsiella pneumoniae; K. pneumoniae AR0145): 2 µg/mL (≈ 5.26 µM) | MIC (Klebsiella pneumoniae; K. pneumoniae AR0146): 2 µg/mL (≈ 5.26 µM) | MIC (Klebsiella pneumoniae; K. pneumoniae AR0148): 4 µg/mL (≈ 10.5 µM) | MIC (Klebsiella pneumoniae; K. pneumoniae AR0152): 0.5 µg/mL (≈ 1.31 µM) | MIC (Klebsiella pneumoniae; K. pneumoniae AR0153): 4 µg/mL (≈ 10.5 µM) | MIC (Klebsiella pneumoniae; K. pneumoniae AR0158): 8 µg/mL (≈ 21 µM) | MIC (Klebsiella pneumoniae; K. pneumoniae AR0160): 0.5 µg/mL (≈ 1.31 µM) | MIC (Klebsiella pneumoniae; K. pneumoniae AR0347): 8 µg/mL (≈ 21 µM) | MIC (Klebsiella pneumoniae; K. pneumoniae AR0542): 2 µg/mL (≈ 5.26 µM) | MIC (Klebsiella pneumoniae; K. pneumoniae AR0548): 2 µg/mL (≈ 5.26 µM) | MIC (Klebsiella pneumoniae; K. pneumoniae AR0550): 2 µg/mL (≈ 5.26 µM) | MIC (Klebsiella pneumoniae; K. pneumoniae AR0552): 4 µg/mL (≈ 10.5 µM) | MIC (Klebsiella pneumoniae; K. pneumoniae AR0553): 0.5 µg/mL (≈ 1.31 µM) | MIC (Klebsiella pneumoniae; K. pneumoniae AR0554): 4 µg/mL (≈ 10.5 µM) | MIC (Klebsiella pneumoniae; K. pneumoniae AR0555): 2 µg/mL (≈ 5.26 µM) | MIC (Klebsiella pneumoniae; K. pneumoniae AR-0040): 1 µg/mL (≈ 2.63 µM) | MIC (Enterobacter cloacae; ATCC29893, E. cloacae ATCC 29893): 4 µg/mL (≈ 10.5 µM) | MIC (Enterobacter cloacae; ATCCBAA2341, E. cloacae ATCC BAA-2341): 16 µg/mL (≈ 42.1 µM) | MIC (Enterobacter cloacae; ATCCBAA2468, E. cloacae ATCC BAA-2468): 4 µg/mL (≈ 10.5 µM) | MIC (Enterobacter cloacae; E. cloacae AR0032): 2 µg/mL (≈ 5.26 µM) | MIC (Enterobacter cloacae; E. cloacae AR0038): 8 µg/mL (≈ 21 µM) | MIC (Enterobacter cloacae; E. cloacae AR0050): 0.5 µg/mL (≈ 1.31 µM) | MIC (Enterobacter cloacae; E. cloacae AR0053): 4 µg/mL (≈ 10.5 µM) | MIC (Enterobacter cloacae; E. cloacae AR0060): 1 µg/mL (≈ 2.63 µM) | MIC (Enterobacter cloacae; E. cloacae AR0065): 1 µg/mL (≈ 2.63 µM) | MIC (Enterobacter cloacae; E. cloacae AR0072): 4 µg/mL (≈ 10.5 µM) | MIC (Enterobacter cloacae; E. cloacae AR0073): 16 µg/mL (≈ 42.1 µM) | MIC (Enterobacter cloacae; E. cloacae AR0093): 2 µg/mL (≈ 5.26 µM) | MIC (Enterobacter cloacae; E. cloacae AR0132): 1 µg/mL (≈ 2.63 µM) | MIC (Enterobacter cloacae; E. cloacae AR0136): 4 µg/mL (≈ 10.5 µM) | MIC (Enterobacter cloacae; E. cloacae AR0154): 0.25 µg/mL (≈ 0.657 µM) | MIC (Enterobacter cloacae; E. cloacae AR0164): 2 µg/mL (≈ 5.26 µM) | MIC (Enterobacter cloacae; E. cloacae AR0544): 4 µg/mL (≈ 10.5 µM) | MIC (Enterobacter cloacae; E. cloacae AR0545): 1 µg/mL (≈ 2.63 µM) | MIC (Enterobacter cloacae; E. cloacae AR-0163): 8 µg/mL (≈ 21 µM)
